The values that follow come from PMC10525927, “First Generation of Antioxidant Precursors for Bioisosteric Se-NSAIDs: Design, Synthesis, and In Vitro and In Vivo Anticancer Evaluation” (Antioxidants, 2023).

For assay [1], the system named is HT-29 colon cancer cells. Set-up: method as in PMID 26750401, PMID 32987314, PMID 33799070, PMID 36257283. The following applies: MTT; parent NSAIDs for reference, some values obtained from the literature; cited from earlier work.
Assay [2] concerns HCT-116 colon cancer cells. Set-up: method as in PMID 26750401, PMID 32987314, PMID 33799070, PMID 36257283. To be noted: MTT; parent NSAIDs for reference, some values obtained from the literature; cited from earlier work.
For assay [3], the system named is DU-145 prostate cancer cells. Also on record: method as in PMID 26750401, PMID 32987314, PMID 33799070, PMID 36257283. The following applies: MTT; parent NSAIDs for reference, some values obtained from the literature; cited from earlier work.
In assay [4] the test system is PC-3 prostate cancer cells. Also on record: method as in PMID 26750401, PMID 32987314, PMID 33799070, PMID 36257283. To be noted: MTT; parent NSAIDs for reference, some values obtained from the literature; cited from earlier work.
Assay [5] has as its system MDA-MB-231 breast cancer cells. Also on record: method as in PMID 26750401, PMID 32987314, PMID 33799070, PMID 36257283. To be noted: MTT; parent NSAIDs for reference, some values obtained from the literature; cited from earlier work.
Assay [6] has as its system T-47D breast cancer cells. Also on record: method as in PMID 26750401, PMID 32987314, PMID 33799070, PMID 36257283. To be noted: MTT; parent NSAIDs for reference, some values obtained from the literature; cited from earlier work.
Assay [7] concerns H1299 lung cancer cells. Also on record: method as in PMID 26750401, PMID 32987314, PMID 33799070, PMID 36257283. The following applies: MTT; parent NSAIDs for reference, some values obtained from the literature; cited from earlier work.
The test system of assay [8] is A549 lung cancer cells. Also on record: method as in PMID 26750401, PMID 32987314, PMID 33799070, PMID 36257283. The following applies: MTT; parent NSAIDs for reference, some values obtained from the literature; cited from earlier work.
Assay [9] is described as follows: DPPH radical scavenging assay. The following applies: positive controls, each time point and concentration (0.03 and 0.06 mg/mL). Here is the method:
Briefly, the compounds were dissolved at a concentration of 1 mg/mL in absolute methanol, and a dilution was prepared. […] Then, 100 µL of the DPPH solution was added to 100 µL of the compounds’ solution to a final concentration of 0.03 mg/mL or 0.06 mg/mL, and the decolorization of the purple radical to the yellowish reduced form was followed by recording the absorbance at 517 nm. Ascorbic acid (Asc) and Trolox were used as positive controls. Both of them, Asc and Trolox, were purchased from Sigma-Aldrich. Determinations were recorded at eight different time intervals from 0 to 120 min on a BioTeck PowerWave XS spectrophotometer, and the data were collected using KCJunior version 1.41. software. All the measurements were carried out in triplicate. Results are expressed as the percentage of the radical scavenged, calculated using the following formula: % DPPH radical scavenging = [(Acontrol − Asample)/Acontrol] × 100, wherein Acontrol refers to the absorbance of the negative control and Asample refers to the absorbance of the tested compounds.
A general note: DPPH is a stable violet radical that fades when it is reduced.

Assay [10] relates to HT-29 colon cancer cells. As to the kind of experiment: MTT cell viability assay, HT-29. Type of assay: cell-based. To be noted: mean ± SD. As for the experimental part: (§1) The cell lines were purchased from the American Type Culture Collection (ATCC). The cancer cell lines DU-145, PC-3, T-47D, MDA-MB-231, H1299, and A549, and the non-tumorigenic cells (184B5 and BEAS-2B), were maintained in RPMI 1640 medium (Gibco, Alcobendas, Madrid, Spain) supplemented with 10% fetal bovine serum (FBS; Gibco) and 1% antibiotics (10.00 units/mL penicillin and 10.00 mg/mL streptomycin; Gibco). Colon cancer cells HT-29 and HCT-116 were cultured in McCoy’s 5A medium (Gibco) supplemented with 10% fetal bovine serum (FBS; Gibco) and 1% antibiotics (10.00 units/mL penicillin and 10.00 mg/mL streptomycin; Gibco). Cells were maintained in tissue culture flasks at 37 °C and 5% CO2. The culture medium was replaced every three days.
(§2) The antiproliferative activity and selectivity in vitro of the Se-NSAID derivatives were determined by the (3-(4,5-dimethylthiazol-2-yl)-2,5-diphenyltetrazolium bromide) (MTT) assay. Compounds were dissolved in DMSO at a concentration of 0.01 M and serial dilutions were prepared. The Se-NSAID derivatives were tested at seven concentrations ranging between 1 and 100 µM in the colon (HT-29 and HCT-116), prostate (DU-145 and PC-3), breast (MDA-MB-231 and T-47D), and lung (H1299 and A549) cancer cell lines. The non-tumorigenic breast (184B5) and lung (BEAS-2B) cell lines were also tested to assess the selectivity of the compounds following the same procedure. A total of 1 × 10^4 cells were seeded per well in 96-well plates and incubated at 5% CO2 and 37 °C for 24 h. Then, cells were treated with either DMSO or increasing concentrations of the corresponding Se-NSAID derivatives for 48 h. A volume of 20 µL of MTT (5 mg/mL) was added to each well 2.5 h before the termination point. At the end of the experiment, the medium was removed, and the resultant formazan crystals formed by mitochondrial reduction of MTT were dissolved in 50 µL of DMSO. Absorbance was measured at 550 nm. IC50, GI50, TGI, and LC50 values were calculated using OriginPro version 8.5.1. software by nonlinear curve fitting. Selectivity indexes (SI) were calculated as the ratio of the IC50 values determined for the nonmalignant and the tumoral cells in the breast (IC50 (184B5)/IC50 (MDA-MB-231) and IC50 (184B5)/IC50 (T-47D)) and lung (IC50 (BEAS-2B)/IC50 (H1299) and IC50 (BEAS-2B)/IC50 (A549)) cell lines. Data were obtained from at least three independent experiments performed in triplicates.
On the technique in general: Formazan colour is commonly taken as a measure of viable cells.

Assay [11] has as its system HCT-116 colon cancer cells. Put plainly: MTT cell viability assay, HCT-116. The format is cell-based. To be noted: mean ± SD. As for the experimental part:
as §1, §2

In assay [12] the test system is DU-145 prostate cancer cells. Put plainly: MTT cell viability assay, DU-145. Type of assay: cell-based. To be noted: mean ± SD. As for the experimental part:
as §1, §2

Assay [13] has as its system PC-3 prostate cancer cells. As to the kind of experiment: MTT cell viability assay, PC-3. Type of assay: cell-based. The following applies: 48 h, mean ± SD. Here is the method:
as §1, §2

The subject of assay [14] is MDA-MB-231 breast cancer cells. As to the kind of experiment: MTT cell viability assay, MDA-MB-231. The format is cell-based. To be noted: mean ± SD. Here is the method: as §1, §2
The test system of assay [15] is T-47D breast cancer cells. As to the kind of experiment: MTT cell viability assay, T-47D. Type of assay: cell-based. The following applies: 48 h, mean ± SD. Here is the method:
as §1, §2

Assay [16] relates to H1299 lung cancer cells. As to the kind of experiment: MTT cell viability assay, H1299. The format is cell-based. To be noted: Homo sapiens, NCI-H1299, 48 h, mean ± SD. Here is the method:
as §1, §2

Assay [17] relates to A549 lung cancer cells. As to the kind of experiment: MTT cell viability assay, A549. Type of assay: cell-based. The following applies: mean ± SD. As for the experimental part:
as §1, §2

Assay [18] concerns 184B5 non-tumorigenic breast (mammary gland) cells. As to the kind of experiment: MTT cell viability assay, 184B5. The format is cell-based. To be noted: mean ± SD. Here is the method:
as §1, §2

For assay [19], the system named is BEAS-2B non-tumorigenic lung (bronchial epithelium) cells. Put plainly: MTT cell viability assay, BEAS-2B. Type of assay: cell-based. To be noted: 48 h, mean ± SD. As for the experimental part:
as §1, §2

Assay [20] deals with panel of eight cancer cell lines. Put plainly: MTT cell viability assay, statements on the whole panel. The format is cell-based. The following applies: 48 h. Here is the method: as §1, §2
The mark [21] stands for this setting: in vitro TGI concentration, 48 h, Table S1.
Setting [22] is: in vitro TGI concentration, Table S1.

Like-named read-outs stand apart in the source and are kept apart here.

As to `CC(C(=O)O)c1cccc(C(=O)c2ccccc2)c1` (stereo not drawn) [Ket, ketoprofen], the IC50 in [1], in assay [2], in [3], in [4], in [5] and in [6] was more than 50 µM each time. The IC50 in assay [7] and in [8] was more than 50 µM in each case.

As to `Cc1c(C)c2c(c(C)c1O)CCC(C)(C(=O)O)O2` (stereo not drawn) [Trolox, reference compound], the “DPPH radical scavenging activity” value in [9] was “maximal scavenging activity”.

In the case of `COc1ccc2c(c1)c(CC(=O)O)c(C)n2C(=O)c1ccc(Cl)cc1` [Ind, indomethacin], the IC50 in assay [1], in [2], in [3], in assay [4], in assay [5] and in assay [6] was more than 50 µM each time. Besides, the IC50 in assay [7] and in [8] was more than 50 µM throughout.

With `O=C1O[C@H]([C@@H](O)CO)C(O)=C1O` [Asc, Ascorbic acid, reference compound], the “DPPH radical scavenging activity” value in assay [9] is recorded as “maximal scavenging activity”.

`CC(=O)Oc1ccccc1C(=O)O` [ASA, aspirin]: the IC50 in assay [1], in assay [2], in [3], in assay [4], in assay [5] and in assay [6] was more than 50 µM each time. Also, the IC50 in [7] and in [8] was more than 50 µM throughout.

As for `CC(C)Cc1ccc(C(C)C(=O)O)cc1` (stereo not drawn) [Ibup, ibuprofen], the IC50 in [1], in [2], in assay [3], in assay [4], in assay [5] and in assay [6] was more than 50 µM each time. The IC50 in assay [7] and in assay [8] was more than 50 µM in each case.

On to `COc1ccc2cc(C(C)C(=O)[Se][Se]C(=O)C(C)c3ccc4cc(OC)ccc4c3)ccc2c1` (stereo not drawn) [Compound 3, 2-(6-Methoxynaphthalen-2-yl)propanoic diselenoperoxyanhydride], for which the “IC50 HT-29” value in assay [10] (48 h) is listed as “no activity at all”. Further, the IC50 (usually the concentration at which inhibition is half-maximal) is more than 50 µM in assay [10] (Homo sapiens, HT-29, 48 h); 9.1 ± 5.9 µM in [11] (Homo sapiens, HCT-116, 48 h); 6.1 ± 0.6 µM in [12] (Homo sapiens, DU-145, 48 h); 5.2 ± 0.2 µM in assay [13]; 5.7 ± 0.8 µM in assay [14] (Homo sapiens, MDA-MB-231, 48 h); 5.6 ± 0.1 µM in assay [15] (Homo sapiens, T47D). In addition, the IC50 in [16] is 8.1 ± 2.5 µM; in [17] (48 h), more than 100 µM; in assay [17] (Homo sapiens, A549, 48 h), more than 50 µM; in assay [18] (Homo sapiens, 184B5, 48 h, nonmalignant breast cells) it was 11.9 ± 1 µM; in [19] (Homo sapiens, BEAS-2B, nonmalignant lung cells), 11.2 ± 1 µM; in assay [20] (read-out: average IC50 in prostate (DU-145 and PC-3) and breast (MDA-MB-231 and T-47D) cancer cell lines), approximately 5 µM. Besides, the GI50 (commonly the concentration that inhibits growth by half) in assay [10] (Homo sapiens, HT-29, 48 h, Table S1) stood at 6.8 ± 1.4 µM; in assay [11] (Homo sapiens, HCT-116, 48 h, Table S1), 9.3 ± 4.7 µM; in [12] (Homo sapiens, DU-145, 48 h, Table S1), 5 ± 0.2 µM; in assay [13] (Table S1), 4.4 ± 0.3 µM; in assay [14] (Homo sapiens, MDA-MB-231, 48 h, Table S1) it was 5.2 ± 0.2 µM; in assay [15] (Homo sapiens, T47D, Table S1), 1800 ± 200 nM. Further, the GI50 in [16] (Table S1) is 6.7 ± 1.1 µM; in assay [17] (Homo sapiens, A549, 48 h, Table S1) it was 3.3 ± 0.4 µM; in [18] (Homo sapiens, 184B5, 48 h, Table S1) it was 7.1 ± 0.5 µM; in assay [19] (Homo sapiens, BEAS-2B, Table S1) it was 7 ± 2.5 µM; in assay [20] (eight cancer cell lines, read-out: GI50 across all the cancer cell lines tested), less than 10 µM. Moreover, in [11] (setting [21]), the “TGI HCT-116” value was found to be 30.9 ± 16.7 µM. The “LD50 DU-145” value in [12] (48 h, Table S1) came out at 10.4 ± 2.4 µM. The “TGI DU-145” value in assay [12] (setting [21]) is recorded as 6.1 ± 0.6 µM. For the same compound, the “LD50 PC-3” value in assay [13] (Table S1) came to 5.9 ± 0.9 µM. In addition, the “TGI PC-3” value in assay [13] (setting [22]) is given as 5.0 ± 0.1 µM. Moreover, the “TGI MDA-MB-231” value in assay [14] (setting [21]) is 5.6 ± 0.8 µM. The “LD50 T-47D” value in [15] (Table S1) is 6.3 ± 0.7 µM. For the same compound, in assay [15] (setting [22]), the “TGI T-47D” value amounted to 3.1 ± 0.3 µM. Further, the “IC50 A549” value in [17] (48 h) was “no activity at all”. In addition, the “TGI 184B5” value in assay [18] (setting [21]) was found to be 9.4 ± 0.2 µM. In assay [19] (Table S1), the “LD50 BEAS-2B” value came out at 12.3 ± 2.1 µM. Also, the “TGI BEAS-2B” value in assay [19] (setting [22]) came to 9.0 ± 1.2 µM.

As for `COc1ccc2cc([C@H](C)C(=O)O)ccc2c1` [Nap, naproxen], the IC50 in assay [1], in assay [2], in assay [3], in [4], in assay [5] and in assay [6] was more than 50 µM in each case. In addition, the IC50 in assay [7] and in assay [8] was more than 50 µM in each case.
